Reference: patent US5358937A, “Glycosyl phospholipid derivatives of nucleosides and their use as medicines” (priority 1989, dated 1994)
Where “and” joins values, the source holds several entries; their conditions need not be identical. Equal values may be shown once. Read-outs that look alike come from different tables or passages of the source.

Assays:
[1] = test system: HIV virus (isolate LAV1-BRU); assay: inhibition of the cytopathogenic effect (CPE) of the HIV virus toward a continuous line of T4 lymphocytes by colorimetric assay with MTT; assay type: cell-based
[2] = test system: HIV virus; viral reverse transcriptase; assay: inhibition of viral replication by microassay of the enzymatic activity of the viral reverse transcriptase in CEM culture supernatants; assay type: cell-based; parameters: unit not given here
[3] = 31P-NMR study of the interactions between the phosphotriesters and model membranes (transmembrane transport)
[4] = in vitro; details: human, cem-c113 cells
[5] = HPLC assay of AZT in the brain of mice after oral administration; assay type: in vivo, Swiss mouse; details: for Phosphodiester detected by HPLC per gram of brain, mean (offset figure): AZT equivalent micromol per mouse: CT 6715 0.94, CT 6651 0.68; for Phosphodiester detected by HPLC per gram of brain, mean (offset figure) / Phosphodiester detected by HPLC per gram of brain, individual value: CT 7624 0.90; for Phosphodiester detected by HPLC per gram of brain, individual value: AZT equivalent micromol per mouse: CT 6715, CT 7626 0.94, CT 6651, CT 7627 0.68, 60 min
Procedure: The assays are conducted on the Swiss mouse.
The compounds are dissolved in distilled water (or suspended in distilled water) before being administered by gavage; the assays are performed by administering each compound to 3 mice. The control consists of 3 mice receiving the equivalent of the vehicle, i.e. the same volume of distilled water as the treated mice. The brains are removed 1 hour after garage, homogenized in an acetonitrile-water (3/1) mixture, centrifuged and the supernatant is taken for the HPLC assay.
In a preliminary trial, favourable experimental conditions for the assays of the different compounds by HPLC are determined.
In the table which follows, each line corresponds to an assay series.

[6] = test system: HIV virus (isolate LAV1-BRU); assay: selectivity index / protection index (CD50/ED50 ratio); assay type: cell-based; details: D7
From the text: Determination of the selectivity index
The higher the difference between the CD50 and the ED50, the more useful will be the product. This difference is quantified by the selectivity index (the CD50/ED50 ratio).

[7] = Human immunodeficiency virus 1, CEM-c113, read-out: ED50 (protective dose 50%), D7 of culture, CEM-C113 cells
[8] = Human immunodeficiency virus 1, CEM-c113, read-out: ED50 (protective dose 50%), D11 of culture, CEM-C113 cells
[9] = Human immunodeficiency virus 1, CEM-c113, read-out: ED50 (protective dose 50%), D19 of culture, CEM-C113 cells
[10] = Human immunodeficiency virus 1, CEM-c113, read-out: ED50 (protective dose 50%), D22 of culture, CEM-C113 cells
[11] = 25 mg/kg oral, 1 hour, CT 7625 0.64
[12] = 25 mg/kg oral, 1 hour, CT 7625 0.64, 25 mg/kg

| Structure (SMILES) | EC50 [1, 7] | EC50 [1, 8] | EC50 [1, 9] | EC50 [1, 10] | reverse transcriptase activity in culture supernatant ([2]; 0.2 uM, D7) | reverse transcriptase activity in culture supernatant ([2]; 0.2 uM, D11) | reverse transcriptase activity in culture supernatant ([2]; 0.2 uM, D18) | reverse transcriptase activity in culture supernatant ([2]; 0.2 uM, D19) | reverse transcriptase activity in culture supernatant ([2]; 0.2 uM, D22) | reverse transcriptase activity in culture supernatant ([2]; 0.2 uM, D26) | reverse transcriptase activity in culture supernatant ([2]; 1 uM, D7) | reverse transcriptase activity in culture supernatant ([2]; 1 uM, D11) | reverse transcriptase activity in culture supernatant ([2]; 1 uM, D18) | reverse transcriptase activity in culture supernatant ([2]; 1 uM, D19) | reverse transcriptase activity in culture supernatant ([2]; 1 uM, D22) | reverse transcriptase activity in culture supernatant ([2]; 1 uM, D26) | CC50 at 168 h [4] | CC50 at 264 h [4] | CC50 at 456 h [4] | CC50 at 528 h [4] | also measured |
| --- | --- | --- | --- | --- | --- | --- | --- | --- | --- | --- | --- | --- | --- | --- | --- | --- | --- | --- | --- | --- | --- |
| CCCCCCCCCCCCCCCCOP(=O)(OCCO[C@H]1O[C@H](CO)[C@@H](O)[C@H](O)[C@@H]1O)OC[C@H]1O[C@@H](n2cc(C)c(=O)[nH]c2=O)C[C@@H]1N=[N+]=[N-] (stereo partly drawn) [CT 7625, 1-ethoxy D-mannosyl hexadecyl 5'-(3'-azido) thymidinyl phosphate] | < 200 nM | 1000 nM | > 1000 nM | > 1000 nM | 3900 | 2900 | 2400 | 25000 | 52000 | 61000 | 6000 | 6000 | 5500 | 47000 | 48000 | 64000 | 20000 nM | 28000 nM | 3400 nM | 24000 nM | interaction with / location in unilamellar vesicles (in words) [3]: found in the intravesicular aqueous phase; Phosphotriester detected by HPLC per gram of brain, individual value ([5]; 25 mg/kg oral, 1 hour, AZT equivalent micromol per mouse: CT 6651, CT 7627 0.68, CT 7625 0.64): 0 µg; Phosphodiester detected by HPLC per gram of brain, mean (offset figure) [5, 11]: 2.34 µg; Phosphodiester detected by HPLC per gram of brain, individual value [5, 12]: 1.17 µg and 3.51 µg |
| Cc1cn([C@H]2C[C@H](N=[N+]=[N-])[C@@H](COP(=O)(O)OCCO[C@H]3O[C@H](CO)[C@@H](O)[C@H](O)[C@@H]3O)O2)c(=O)[nH]c1=O [CT 7624, 1ethoxy D-mannosyl 5'-(3'-azido) thymidinyl phosphate] | < 200 nM | < 200 nM | < 200 nM | 800 nM | 4400 | 2800 | 2600 | 24000 | 27000 | 70000 | 2800 | 1900 | 2200 | 12000 | 26000 | 55000 | 25000 nM | > 25000 nM | > 25000 nM | > 25000 nM | reverse transcriptase activity in culture supernatant ([2]; 5 uM, D7): 1670; reverse transcriptase activity in culture supernatant ([2]; 5 uM, D11): 1003; reverse transcriptase activity in culture supernatant ([2]; 5 uM, D18): 852; reverse transcriptase activity in culture supernatant ([2]; 5 uM, D19): 2700; reverse transcriptase activity in culture supernatant ([2]; 5 uM, D22): 5500; reverse transcriptase activity in culture supernatant ([2]; 5 uM, D26): 42000; reverse transcriptase activity in culture supernatant ([2]; 25 uM, D7): 1204; reverse transcriptase activity in culture supernatant ([2]; 25 uM, D11): 372; reverse transcriptase activity in culture supernatant ([2]; 25 uM, D18): 304; reverse transcriptase activity in culture supernatant ([2]; 25 uM, D19): 2100; reverse transcriptase activity in culture supernatant ([2]; 25 uM, D22): 500; reverse transcriptase activity in culture supernatant ([2]; 25 uM, D26): 1700; Phosphodiester detected by HPLC per gram of brain, mean (offset figure) [5, 11]: 2.31 µg; Phosphodiester detected by HPLC per gram of brain, individual value [5, 12]: 0.92 µg and 3.70 µg |
| Nc1ccn([C@H]2CC[C@@H](CO)O2)c(=O)n1 [ddC, dideoxycytidine, reference compound] | < 200 nM | – | – | – | – | – | – | – | – | – | – | – | – | – | – | – | 7000 nM | 400 nM | < 200 nM | < 200 nM | PROTECTION INDICES (P.I.), CD50/ED50 [6]: > 35 |
| Cc1cn([C@H]2C[C@H](N=[N+]=[N-])[C@@H](COP(=O)(O)OC[C@H]3OC(O)[C@@H](O)[C@@H](O)[C@@H]3O)O2)c(=O)[nH]c1=O (stereo partly drawn) [CT 7626, 6-D-mannosyl-5'(3'-azido) thymidinyl phosphate] | < 200 nM | 200 nM | 200 nM | 600 nM | 3400 | 3000 | 1700 | 12000 | 27000 | 85000 | 2700 | 1300 | 1200 | 5000 | 15000 | 50000 | > 25000 nM | > 25000 nM | 24000 nM | 24000 nM | reverse transcriptase activity in culture supernatant ([2]; 5 uM, D7): 1500; reverse transcriptase activity in culture supernatant ([2]; 5 uM, D11): 1000; reverse transcriptase activity in culture supernatant ([2]; 5 uM, D18): 1300; reverse transcriptase activity in culture supernatant ([2]; 5 uM, D19): 8000; reverse transcriptase activity in culture supernatant ([2]; 5 uM, D22): 12000; reverse transcriptase activity in culture supernatant ([2]; 5 uM, D26): 100000; reverse transcriptase activity in culture supernatant ([2]; 25 uM, D7): 1100; reverse transcriptase activity in culture supernatant ([2]; 25 uM, D11): 700; reverse transcriptase activity in culture supernatant ([2]; 25 uM, D18): 900; reverse transcriptase activity in culture supernatant ([2]; 25 uM, D19): 2200; reverse transcriptase activity in culture supernatant ([2]; 25 uM, D22): 900; reverse transcriptase activity in culture supernatant ([2]; 25 uM, D26): 900; concentration at 1 h ([5]; mouse, brain, po, 25 mg/kg, read-out: Phosphodiester detected by HPLC per gram of brain, individual value): 2050 ng/g |
| Cc1cn([C@H]2CC[C@@H](CO)O2)c(=O)[nH]c1=O [ddT, 2', 3'-dideoxy thymidine, reference compound] | < 200 nM | 700 nM | 800 nM | > 25000 nM | – | – | – | – | – | – | 3000 | 1500 | 750 | 1200 | 350 | 600 | > 25000 nM | < 25000 nM | > 25000 nM | > 25000 nM | reverse transcriptase activity in culture supernatant ([2]; 5 uM, D7): 5000; reverse transcriptase activity in culture supernatant ([2]; 5 uM, D11): 2000; reverse transcriptase activity in culture supernatant ([2]; 5 uM, D18): 1400; reverse transcriptase activity in culture supernatant ([2]; 5 uM, D19): 5000; reverse transcriptase activity in culture supernatant ([2]; 5 uM, D22): 2100; reverse transcriptase activity in culture supernatant ([2]; 5 uM, D26): 5000; reverse transcriptase activity in culture supernatant ([2]; 25 uM, D7): 2500; reverse transcriptase activity in culture supernatant ([2]; 25 uM, D11): 1000; reverse transcriptase activity in culture supernatant ([2]; 25 uM, D18): 800; reverse transcriptase activity in culture supernatant ([2]; 25 uM, D19): 7000; reverse transcriptase activity in culture supernatant ([2]; 25 uM, D22): 4000; reverse transcriptase activity in culture supernatant ([2]; 25 uM, D26): 5000 |
